Test results published in patent US3975389A, “Caffeine derivatives” (priority 1973, dated 1976).

Experiments:
[1] = system: bronchial spasm caused by a broncho-constrictor aerosol of histamine hydrochloride; test: broncholitic activity in the awake guinea-pig: percentage protection against bronchial spasm caused by histamine hydrochloride aerosol; type: in vivo
[2] = survival / late mortality of guinea-pigs treated in the broncholitic activity test (48 hours, oral route); details: guinea pig, in vivo, po
[3] = strengthening of the andiogenic convulsions test in the mouse; type: in vivo; details: in vivo, ip, intraperitoneal dose of 50 mg/kg, read-out: death of treated animals
From the text: (§1) The undesired action on the central nervous system has been evaluated with the strengthening of the andiogenic convulsions test in the mouse (Werboff et coll., Amer. J. Physiol., 201, 830, 1961). As is well known, the theophilline derivatives potentiate the effects of the acoustic stimulus (motory agitation, clonic and tonic convulsions which may lead to the death of the animals).

[4] = system: effects of the acoustic stimulus (motory agitation, clonic and tonic convulsions); test: as above; type: in vivo; details: intraperitoneal dose of 50 mg/kg
From the text: as §1

[5] = bronchial asthma therapy; known for the comparison compound; cited from earlier work
guinea-pigs = test: survival / late mortality of guinea-pigs treated in the broncholitic activity test (48 hours, oral route); details: in words; tardy mortality
acute toxicity, mouse = details: in vivo
From the text: (§2) o) compound dissolved in physiological salt solution.
(§3) x) compound suspended in 5% arabic gum.

[6] = acute toxicity, guinea-pig; details: in vivo
From the text: as §2, §3

[7] = i.p. route, 25 mg/kg, after 30' of the administration
[8] = i.p. route, 50 mg/kg, after 30' of the administration
[9] = i.p. route, 75 mg/kg, after 30' of the administration
[10] = oral route, 75 mg/kg, after 60' of the administration
[11] = oral route, 150 mg/kg, after 60' of the administration
[12] = oral route, 300 mg/kg, after 60' of the administration
[13] = ip, dissolved in physiological salt solution
[14] = po, per os, suspended in 5% arabic gum

SMILES | Protection percentage from the spasm caused by histamine [1, 7] [%] | Protection percentage from the spasm caused by histamine [1, 8] [%] | Protection percentage from the spasm caused by histamine [1, 9] [%] | Protection percentage from the spasm caused by histamine [1, 10] [%] | Protection percentage from the spasm caused by histamine [1, 11] [%] | Protection percentage from the spasm caused by histamine [1, 12] [%] | survival at 48 h ([2]; 75 mg/kg) [%] | survival at 48 h ([2]; 150 mg/kg) [%] | survival at 48 h ([2]; 300 mg/kg) [%] | LD50 (acute toxicity, mouse; [13]) [mg/kg] | LD50 (acute toxicity, mouse; [14]) [mg/kg] | also measured
Cc1ccnc(C)c1C(=O)OC(C)c1nc2c(c(=O)n(C)c(=O)n2C)n1C.Cl (stereo not drawn) [386/986, 8-[α-(2,4-dimethylnicotinoyloxy)-ethyl]-caffeine monohydrochloride] | 22 | 39 | 85 | 39 | 54 | 80 | 100 | 100 | 100 | – | – | –
Cn1c(=O)c2[nH]cnc2n(C)c1=O [Aminophilline, reference compound] | – | 24 | 80 | 31 | 95 | – | – | – | – | – | – | Protection percentage from the spasm caused by histamine ([1]; i.p. route, 100 mg/kg, after 30' of the administration): 100%; Protection percentage from the spasm caused by histamine ([1]; i.p. route, 150 mg/kg, after 30' of the administration): 100%; Protection percentage from the spasm caused by histamine ([1]; oral route, 50 mg/kg, after 60' of the administration): 14%; Protection percentage from the spasm caused by histamine ([1]; oral route, 100 mg/kg, after 60' of the administration): 92%; mortality [3]: 50%; strengthening of the effects of the acoustic stimulus [4]: remarkable strengthening of the effects of the acoustic stimulus; undesired secondary effects [5]: excitement caused by caffeine and irritation of the gastric mucous membrane; mortality of guinea-pigs subjected to the broncholitic activity test (guinea-pigs): tardy high mortality
Cc1ccnc(C)c1C(=O)OC(C)c1nc2c(c(=O)n(C)c(=O)n2C)n1C (stereo not drawn) [8-[α-(2,4-dimethylnicotinoyloxy)-ethyl]-caffeine] | – | – | – | – | – | – | – | – | – | 320 | 500 | –
CC(OC(=O)c1cccnc1)c1nc2c(c(=O)n(C)c(=O)n2C)n1C.Cl (stereo not drawn) [386/770, 8-[α-(nicotinoyloxy)-ethyl]-caffeine monohydrochloride] | 35 | 38 | 94 | 13 | 26 | 65 | 100 | 100 | 100 | – | – | –
CC(OC(=O)c1cccnc1)c1nc2c(c(=O)n(C)c(=O)n2C)n1C (stereo not drawn) [8-[α-(nicotinoyloxy)-ethyl]-caffeine] | – | – | – | – | – | – | – | – | – | 445 | 520 | LD50 [6, 13]: 220 mg/kg; LD50 [6, 14]: 440 mg/kg
